Here are results for four compounds from the NIST ThermoML archive (doi:10.1021/je900653p).

± gives the expanded uncertainty stated by the source.

For the data set the following is noted: Crystal.

As to `CC12CCC(CC1)C(C)(C)O2` [1,3,3-trimethyl-2-oxabicyclo[2.2.2]octane], the Normal melting temperature amounted to 1.2 ± 1.2 °C.

As for `Cc1ccc(C(C)C)cc1` [1-(1-methylethyl)-4-methylbenzene], the Normal melting temperature was -68.5 ± 0.8 °C.

Consider `C=C1C2CCC(C2)C1(C)C` (centres undefined) [2,2-dimethyl-3-methylenebicyclo[2.2.1]heptane], for which the Normal melting temperature stood at 51.1 ± 0.8 °C.

Regarding `C=C1CC[C@H]2C[C@@H]1C2(C)C` [(1S,5S)-6,6-dimethyl-2-methylenebicyclo[3.1.1]heptane], the Normal melting temperature was -61.5 ± 0.8 °C.
